Data published in ChEMBL document CHEMBL4311969, “Polygala tenuifolia-Acori tatarinowii herbal pair as an inspiration for substituted cinnamic α-asaronol esters: Design, synthesis, anticonvulsant activity, and inhibition of lactate dehydrogenase study” (Eur J Med Chem, 2019).
“And” between values parts separate entries of the source, which are not always exact repeats. Equal entries are not always repeated. The source made the active and inactive calls. The calls are words filed in the database; no cut-off is given here.

Legend:
Mus musculus [1] = assay: Anticonvulsant activity in Kunming mouse assessed as MES-induced hind limb extension at 100 mg/kg, ip administered 0. 5 to 2 hrs before MES stimulation; format: functional, organism-based
[2] = Neurotoxicity against Kunming mouse assessed as time remained in rod at 100 mg/kg, ip administered 0.5 to 2 hrs by rotarod test; format: toxicity, organism-based; conditions: in vivo
Homo sapiens [3] = species: Homo sapiens; assay: Inhibition of human LDH5 at 0.5 mM using sodium pyruvate as substrate by UV-VIS spectrophotometry method relative to control
Homo sapiens [4] = species: Homo sapiens; assay: Inhibition of human LDH1 at 0.5 mM using sodium pyruvate as substrate by UV-VIS spectrophotometry method relative to control
Mus musculus [5] = assay: Anticonvulsant activity in Kunming mouse assessed as MES-induced hind limb extension at 100 mg/kg, ip administered 0. 5 to 4 hrs before MES stimulation relative to control; format: functional
Mus musculus [6] = assay: Anticonvulsant activity in ip dosed Kunming mouse assessed as MES-induced hind limb extension administered 0.5 hrs before MES stimulation; format: functional
[7] = Neurotoxicity against ip dosed Kunming mouse assessed as time remained in rod measured at 0.5 hrs by rotarod test; format: toxicity, organism-based; conditions: in vivo
[8] = (§1) Protective index, ratio of TD50 for neurotoxicity against ip dosed Kunming mouse assessed as time remained in rod measured at 0.5 hrs by rotarod test to ED50 for anticonvulsant activity in ip dosed Kunming mouse assessed as reduction in ScPTZ-induced seizure administered 0.5 hrs before ScPTZ stimulation; format: toxicity, organism-based; conditions: in vivo, read-out: PI
Mus musculus [9] = assay: […] activity in ip dosed Kunming mouse assessed as reduction in formalin-induced paw licking administered 0.5 hrs before formalin stimulation; format: functional
[10] = as §1, with “formalin-induced paw licking” for “ScPTZ-induced seizure”, “formalin” for “ScPTZ”; format: toxicity, organism-based; conditions: in vivo, read-out: PI
Mus musculus [11] = assay: Anticonvulsant activity in ip dosed Kunming mouse assessed as reduction in ScPTZ-induced seizure administered 0.5 hrs before ScPTZ stimulation; format: functional
Mus musculus [12] = assay: Anticonvulsant activity in Kunming mouse assessed as MES-induced hind limb extension at 100 mg/kg, ip administered 3 hrs before MES stimulation; format: functional, organism-based
Mus musculus [13] = assay: Anticonvulsant activity in Kunming mouse assessed as reduction in ScPTZ-induced seizure at 100 mg/kg, ip administered 0.25 to 2 hrs before ScPTZ stimulation relative to control; format: functional; parameters: scale not given: the % may be the effect or the level left
Mus musculus [14] = assay: Anticonvulsant activity in Kunming mouse assessed as reduction in ScPTZ-induced seizure at 100 mg/kg, ip administered 0.25 and 1 hrs before ScPTZ stimulation relative to control; format: functional; parameters: scale not given: the % may be the effect or the level left
Mus musculus [15] = assay: Anticonvulsant activity in Kunming mouse assessed as reduction in ScPTZ-induced tonic seizure rate at 100 mg/kg, ip administered 0.5 hrs before ScPTZ stimulation relative to control; format: functional; parameters: scale not given: the % may be the effect or the level left
[16] = Protective index, ratio of TD50 for neurotoxicity against ip dosed Kunming mouse assessed as time remained in rod measured at 0.5 hrs by rotarod test to ED50 for anticonvulsant activity in ip dosed Kunming mouse assessed as MES-induced hind limb extension administered 0.5 hrs; format: toxicity, organism-based; conditions: in vivo, read-out: PI
Mus musculus [17] = assay: Anticonvulsant activity in Kunming mouse assessed as reduction in ScPTZ-induced clonic seizure at 300 mg/kg, ip administered 0.5 hrs before ScPTZ stimulation relative to control; format: functional; parameters: scale not given: the % may be the effect or the level left
[18] = as §1, with “Sc3-MP-induced” for “ScPTZ-induced”, “Sc3-MP” for “ScPTZ”; format: toxicity, organism-based; conditions: in vivo, read-out: PI
Mus musculus [19] = assay: Anticonvulsant activity in Kunming mouse assessed as reduction in ScPTZ-induced clonic seizure at 100 mg/kg, ip administered 0.5 hrs before ScPTZ stimulation relative to control; format: functional; parameters: scale not given: the % may be the effect or the level left
Mus musculus [20] = assay: Anticonvulsant activity in Kunming mouse assessed as reduction in Sc3-MP-induced clonic seizure rate at 300 mg/kg, ip administered 0.5 hrs before Sc3-MP stimulation relative to control; format: functional; parameters: scale not given: the % may be the effect or the level left
Mus musculus [21] = assay: Anticonvulsant activity in Kunming mouse assessed as reduction in ScPTZ-induced seizure at 300 mg/kg, ip administered 0.25 to 2 hrs before ScPTZ stimulation relative to control; format: functional; parameters: scale not given: the % may be the effect or the level left
Mus musculus [22] = assay: Anticonvulsant activity in Kunming mouse assessed as reduction in ScPTZ-induced tonic seizure rate at 300 mg/kg, ip administered 0.5 hrs before ScPTZ stimulation relative to control; format: functional; parameters: scale not given: the % may be the effect or the level left
Mus musculus [23] = assay: Anticonvulsant activity in Kunming mouse assessed as reduction in Sc3-MP-induced tonic seizure rate at 300 mg/kg, ip administered 0.5 hrs before Sc3-MP stimulation relative to control; format: functional; parameters: scale not given: the % may be the effect or the level left
Mus musculus [24] = assay: Anticonvulsant activity in Kunming mouse assessed as reduction in Sc3-MP-induced seizure ip dosed measured at 0.5 hrs before Sc3-MP stimulation; format: functional
Mus musculus [25] = assay: Anticonvulsant activity in Kunming mouse assessed as MES-induced hind limb extension at 50 mg/kg, ip administered 0.5 to 4 hrs before MES stimulation relative to control; format: functional
[26] = Drug metabolism in Sprague-Dawley rat assessed as retention time by HPLC/MS analysis; format: ADME

Row | Compound | Activity (Mus musculus [1]) | Activity [2] | inhibition (Homo sapiens [3]) | inhibition (Homo sapiens [4]) | Activity (Mus musculus [5]) | Activity (Mus musculus [12]) | further results
1 | COc1cc(OC)c(OC)cc1/C=C/COC(=O)/C=C/c1c(OC)c(OC)c(OC)c(OC)c1OC | Active | Non-Toxic | inactive | inactive | inactive |  | 
2 | COc1cc(/C=C/C(=O)OC/C=C/c2cc(OC)c(OC)cc2OC)cc(OC)c1 | Active | Non-Toxic | inactive | inactive | 25 - 100% |  | 
3 | COc1cc(OC)c(OC)cc1/C=C/COC(=O)/C=C/c1cccc(Cl)c1 | Active | Non-Toxic | < 9% | < 5% | 25 - 100% |  | 
4 | COC[C@@H](NC(C)=O)C(=O)NCc1ccccc1 [LACOSAMIDE] |  |  |  |  |  |  | ED50 (Mus musculus [6]): 37.6 µmol/kg and 9.4 mg/kg; TD50 at 0.5 h [7]: 135 µmol/kg; selectivity ratio at 0.5 h [8]: < 0.1; ED50 (Mus musculus [9]): 15 mg/kg and 0.1 µmol/kg; selectivity ratio at 0.5 h [10]: 2.2; ED50 (Mus musculus [11]): > 500 mg/kg and > 2000 µmol/kg
5 | COc1cc(OC)c(OC)cc1/C=C/COC(=O)/C=C/c1cccc(F)c1 | Active | Non-Toxic | < 9% | < 5% | 25 - 100% | Active | 
6 | COc1cc(/C=C/C(=O)O)cc(OC)c1OC [SINAPIC ACID METHYL ETHER] | Active | Non-Toxic |  |  |  |  | 
7 | COc1cc(OC)c(OC)cc1/C=C/COC(=O)/C=C/c1cccc(OC)c1OC | Active | Non-Toxic | inactive | inactive | 25 - 100% | Active | 
8 | COc1cc(OC)c(OC)cc1/C=C/COC(=O)/C=C/c1c(OC)c(OC)cc(OC)c1OC | Active | Non-Toxic | Active | Active | 25 - 100% |  | Activity (Mus musculus [13]): 25%; Activity (Mus musculus [14]): 75%; Activity (Mus musculus [15]): 25%; selectivity ratio at 0.5 h [16]: > 17.3; ED50 (Mus musculus [6]): 122 µmol/kg and 57.9 mg/kg; Activity (Mus musculus [17]): 100%; selectivity ratio at 0.5 h [18]: 5; Activity (Mus musculus [19]): 100%; Activity (Mus musculus [20]): 100%; TD50 at 0.5 h [7]: > 2110 µmol/kg and > 1000 mg/kg; Activity (Mus musculus [21]): 50%; Activity (Mus musculus [22]): 25%; selectivity ratio at 0.5 h [8]: 6.7; ED50 (Mus musculus [9]): 50.8 mg/kg and 107 µmol/kg; Activity (Mus musculus [23]): 75%; ED50 (Mus musculus [24]): > 300 mg/kg and > 632 µmol/kg; selectivity ratio at 0.5 h [10]: 19.7; ED50 (Mus musculus [11]): 149 mg/kg and 314 µmol/kg; Activity (Mus musculus [25]): 50%
9 | COc1cc(OC)c(OC)cc1CCCOC(=O)/C=C/c1cc(OC)c(OC)c(OC)c1 | Active | Non-Toxic | 9% | < 5% | 25 - 100% | Active | 
10 | COc1ccc(OC)c(/C=C/C(=O)OC/C=C/c2cc(OC)c(OC)cc2OC)c1 | Active | Non-Toxic |  |  | 25 - 100% | Active | 
11 | COc1cc(OC)c(OC)cc1/C=C\C(=O)O |  |  |  |  |  |  | Retention_time [26]: 78.7 min
12 | COc1cc(OC)c(OC)cc1/C=C/COC(=O)/C=C/c1ccccc1F | Active | Non-Toxic | < 9% | < 5% | inactive |  | 
